Test results published in patent publication US8791145B2, “Agricultural formulations with acyl morpholines and polar aprotic co-solvents” (Akzo Nobel Chemicals International B.V., priority 2010, dated 2014).
Each block holds one compound with its values, some of them ahead of it.

Assays:
Type in all cases: physicochemical
[1] = Dilution of Amicarbazone formulation in water, ocular inspection; set-up: key: +: No crystals; −: Permanent crystals; details: 100 g/L diluted to 7 g/L
Protocol: The co-solvents used were propylene carbonate (PC), dimethylformamide (DMF) and ethyl lactate (EL). The amount of each co solvent, in % by weight of the total weight of morpholine and co-solvent, can be seen in table 2. The solutions were diluted in local tap water to an end concentration of 7 g/L and the dilution was judged by ocular inspection with the naked eye, and in the table below the following is used: • + No crystals • − Permanent crystals

[2] = Differential scanning calorimetry, enthalpy of evaporation; details: DSC 20° C. to 300° C., 5° C./minute
Protocol: To monitor the enthalpy of evaporation differential scanning calorimetry was used. The reason for these measurements was to determine the cohesion forces between N-formyl morpholine and propylene carbonate. The mixtures (N-formyl morpholine/propylene carbonate in different ratio) were scanned from 20° C. to 300° C. with a temperature increase of 5° C./minute, using a DSC1 calorimeter from Mettler Toledo with STARe software.

[3] = Solubility in acyl morpholines; details: 23° C.
Protocol: Various agriculturally active ingredients were dissolved in N-formyl morpholine, N-acetyl morpholine and N-propionyl morpholine in order to evaluate the solubility of the active ingredients in the solvents. This was done by adding the active ingredient to a beaker and thereafter adding the solvent until a clear solution was obtained. The solutions were continually stirred at a temperature of 23° C. during the experiments. When everything had been dissolved, the beakers were left without stirring for 24 h to see if the solution was stable (i.e. no crystallization).

Crystallization upon dilution in water ([1]; NAM, 0% DMF): −
Crystallization upon dilution in water ([1]; NAM, 0% EL): −
Crystallization upon dilution in water ([1]; NAM, 0% PC): −
Crystallization upon dilution in water ([1]; NAM, 5% DMF): −
Crystallization upon dilution in water ([1]; NAM, 5% EL): −
Crystallization upon dilution in water ([1]; NAM, 5% PC): −
Crystallization upon dilution in water ([1]; NAM, 10% DMF): −
Crystallization upon dilution in water ([1]; NAM, 10% EL): −
Crystallization upon dilution in water ([1]; NAM, 10% PC): −
Crystallization upon dilution in water ([1]; NAM, 20% DMF): −
Crystallization upon dilution in water ([1]; NAM, 20% EL): −
Crystallization upon dilution in water ([1]; NAM, 20% PC): −
Crystallization upon dilution in water ([1]; NAM, 30% DMF): −
Crystallization upon dilution in water ([1]; NAM, 30% EL): −
Crystallization upon dilution in water ([1]; NAM, 30% PC): −
Crystallization upon dilution in water ([1]; NAM, 50% DMF): −
Crystallization upon dilution in water ([1]; NAM, 50% EL): −
Crystallization upon dilution in water ([1]; NAM, 50% PC): −
Crystallization upon dilution in water ([1]; NAM, 95% DMF): +
Crystallization upon dilution in water ([1]; NAM, 95% EL): −
Crystallization upon dilution in water ([1]; NAM, 95% PC): −
Crystallization upon dilution in water ([1]; NFM, 0% DMF): −
Crystallization upon dilution in water ([1]; NFM, 0% EL): −
Crystallization upon dilution in water ([1]; NFM, 0% PC): −
Crystallization upon dilution in water ([1]; NFM, 5% DMF): −
Crystallization upon dilution in water ([1]; NFM, 5% EL): −
Crystallization upon dilution in water ([1]; NFM, 5% PC): −
Crystallization upon dilution in water ([1]; NFM, 10% DMF): −
Crystallization upon dilution in water ([1]; NFM, 10% EL): −
Crystallization upon dilution in water ([1]; NFM, 10% PC): −
Crystallization upon dilution in water ([1]; NFM, 20% DMF): −
Crystallization upon dilution in water ([1]; NFM, 20% EL): −
Crystallization upon dilution in water ([1]; NFM, 20% PC): +
Crystallization upon dilution in water ([1]; NFM, 30% DMF): −
Crystallization upon dilution in water ([1]; NFM, 30% EL): −
Crystallization upon dilution in water ([1]; NFM, 30% PC): −
Crystallization upon dilution in water ([1]; NFM, 50% DMF): −
Crystallization upon dilution in water ([1]; NFM, 50% EL): −
Crystallization upon dilution in water ([1]; NFM, 50% PC): −
Crystallization upon dilution in water ([1]; NFM, 95% DMF): +
Crystallization upon dilution in water ([1]; NFM, 95% EL): −
Crystallization upon dilution in water ([1]; NFM, 95% PC): −
SMILES: CC(C)c1nn(C(=O)NC(C)(C)C)c(=O)n1N [Amicarbazone]

Enthalpy of evaporation [2]: 392 J/g
SMILES: CC1COC(=O)O1 (centres unmarked) [0:100, propylene carbonate]

Continued, compound first:

SMILES: O=CN1CCOCC1 [100:0, 4-formyl morpholine]
Enthalpy of evaporation [2]: 382 J/g

SMILES: COc1c(Cl)ccc(Cl)c1C(=O)O [Dicamba]
Dissolution of active ingredient into N-acetyl morpholine (NAM) [3]: >100 grams of active ingredient in 100 g solvent
Dissolution of active ingredient into N-formyl morpholine (NFM) [3]: >100 grams of active ingredient in 100 g solvent
Dissolution of active ingredient into N-propionyl morpholine (NPM) [3]: >100 grams of active ingredient in 100 g solvent

SMILES: CC1(C)CCC(Cc2ccc(Cl)cc2)C1(O)Cn1cncn1 (centres unmarked) [Metconazole]
Dissolution of active ingredient into N-acetyl morpholine (NAM) [3]: >25 grams of active ingredient in 100 g solvent
Dissolution of active ingredient into N-formyl morpholine (NFM) [3]: >25 grams of active ingredient in 100 g solvent
Dissolution of active ingredient into N-propionyl morpholine (NPM) [3]: >25 grams of active ingredient in 100 g solvent
